# Experimental data reported in article PMC11154582, “Modeling the Blood-Brain Barrier Permeability of Potential Heterocyclic Drugs via Biomimetic IAM Chromatography Technique Combined with QSAR Methodology” (Molecules, 2024).
# Like-named read-outs stand apart in the source and are kept apart here.
# Assays:
# human cancer cells [1] = tested on: human cancer cells; parameters: method as in ref [3,9,10,13,18-21] (a number printed in a supplementary file, which may have a reference list of its own: not looked up in the article's list); conditions: supplement ref [3,9,10,13,18-21]; cited from earlier work
# [2] = Biomimetic IAM chromatography (log kw, IAM); assay type: physicochemical; conditions: IAM.PC.DD2 column, buffered acetonitrile, pH 7.4, 25 °C, extrapolated to buffer
# Procedure: High performance liquid chromatography (HPLC) measurements were performed on a Shimadzu Vp liquid chromatographic system (Shimadzu, Izabelin, Poland). This instrument was equipped with LC 10AT pump, SPD 10A ultraviolet-visible detector, SCL 10A system controller, CTO-10 AS chromatographic oven, and a Rheodyne injector valve with a 20 μL loop. As the stationary phase Regis IAM.PC.DD2 column, 100 × 4.6 mm i.d., 10 μm (Morton Grove, IL, USA) was applied.
# Buffered acetonitrile mixtures were used as effluents. Acetonitrile concentration, expressed as a volume fraction, was varied within a range from 0.2 to 0.5, with a constant step of 0.1. The buffer was prepared from 0.01 mol L^−1 solutions of Na2HPO4 and citric acid, and a pH value of 7.4 was fixed before mixing with an organic modifier. The flow rate was 1.3 mL min^−1. Each compound sample was dissolved in acetonitrile to obtain a concentration of 0.005 mg mL^−1, and each solute peak was detected under ultraviolet light at a wavelength of λmax = 254 nm. Each measurement was performed at a constant temperature (25 °C) at least three times. The dead time values were measured from sodium chloride peaks.
# From among 126 heterocyclic compounds evaluated in this work (Table 1), 89 structures have been investigated previously on the IAM column: these are molecules from groups III, IV, V, VI, VII, VIII, IX, XI, XIII, and XV [21, 22, 23]. The remaining ones, i.e., 37 compounds from groups I, II, X, XII and XIV, were tested in this study for the first time using the biomimetic IAM chromatographic technique. To calculate the log kw values (i.e., the logarithms of retention parameter in the buffer as the mobile phase), the retention parameters, logs k (k = (tr − t0)/t0; where tr is the solute retention time, and t0 is a dead time), that were measured for all tested compounds, were used according to Soczewiński-Wachtmeister’s equation (Equation (5)): (5) log k=logtr−t0/t0=log kw−sφ where φ denotes the volume fraction of acetonitrile as organic modifier in the mobile phase, and kw means the retention parameter corresponding to buffer as the mobile phase. The log kw values were evaluated as linear regression coefficients (Table 2).
# [3] = tested on: zebrafish embryos and larvae; parameters: method as in ref [18,20] (a number printed in a supplementary file, which may have a reference list of its own: not looked up in the article's list); conditions: versus anticancer agent pemetrexed; supplement ref [18,20]; cited from earlier work
# [4] = IAM column, cited from earlier work
# human cancer cells [5] = tested on: human cancer cells; parameters: method as in ref [3-7,9-15,17-21] (a number printed in a supplementary file, which may have a reference list of its own: not looked up in the article's list); conditions: supplement ref [3-7,9-15,17-21]; cited from earlier work
# [6] = parameters: method as in ref [8,16] (a number printed in a supplementary file, which may have a reference list of its own: not looked up in the article's list); conditions: supplement ref [8,16]; cited from earlier work
# [7] = parameters: method as in ref [21,22] (a number printed in a supplementary file, which may have a reference list of its own: not looked up in the article's list); conditions: supplement ref [21,22]; cited from earlier work
# [8] = parameters: method as in ref [14] (a number printed in a supplementary file, which may have a reference list of its own: not looked up in the article's list); conditions: supplement ref [14]; cited from earlier work
# [9] = tested on: oxidatively-stressed erythrocytes; conditions: supplement ref [4,19,26,30]; cited from earlier work
# [10] = tested on: central nervous system of mice; parameters: method as in PMID 24157086; conditions: preliminary tests, ref [21]; cited from earlier work
smiles,measurement,setting,value
Cc1cc(Cl)ccc1OCc1nnc2n1CCN2c1ccccc1 [Compound 8],mechanism of antiproliferative action: inducing DNA damage,human cancer cells [1],DNA damage
same,"log kw, IAM",[2],0.09
O=c1c(C(F)(F)F)nnc2n1CCN2c1ccccc1 [Compound 15],toxicity for zebrafish embryos and larvae compared with pemetrexed,[3],lower
same,"log kw, IAM",[4]; ref [22],0.94
Cc1ccccc1N1CCn2c1nnc(C(F)(F)F)c2=O [Compound 16],mechanism of antiproliferative action: promoting apoptotic caspases,human cancer cells [1],promoting apoptotic caspases
same,toxicity for zebrafish embryos and larvae compared with pemetrexed,[3],lower
same,"log kw, IAM",[4]; ref [22],0.76
COc1ccccc1N1CCn2c1nnc(C(F)(F)F)c2=O [Compound 18],mechanism of antiproliferative action: promoting apoptotic caspases,human cancer cells [1],promoting apoptotic caspases
same,"log kw, IAM",[4]; ref [22],0.67
O=c1c(C(F)(F)F)nnc2n1CCN2c1ccccc1Cl [Compound 19],mechanism of antiproliferative action: promoting apoptotic caspases,human cancer cells [1],promoting apoptotic caspases
same,"log kw, IAM",[4]; ref [22],0.88
CC(C)c1nnc2n(c1=O)CCN2c1ccccc1Cl [Compound 31],mechanism of antiproliferative action: promoting apoptotic caspases,human cancer cells [1],promoting apoptotic caspases
same,"log kw, IAM",[4]; ref [22],0.65
CC(C)c1nnc2n(c1=O)CCN2c1ccc(Cl)cc1 [Compound 33],mechanism of antiproliferative action: promoting apoptotic caspases,human cancer cells [1],promoting apoptotic caspases
same,"log kw, IAM",[4]; ref [22],1.39
CC(C)c1nnc2n(c1=O)CCN2c1ccc(Cl)c(Cl)c1 [Compound 34],mechanism of antiproliferative action: promoting apoptotic caspases,human cancer cells [1],promoting apoptotic caspases
same,"log kw, IAM",[4]; ref [22],1.67
CCOC(=O)c1nnc2n(c1=O)CCN2c1cccc(Cl)c1 [Compound 37],antitumor activity,human cancer cells [5],antitumor
same,"log kw, IAM",[4]; ref [22],1.73
CCOC(=O)c1nnc2n(c1=O)CCN2c1ccc(Cl)c(Cl)c1 [Compound 39],antitumor activity,human cancer cells [5],antitumor
same,"log kw, IAM",[4]; ref [22],3.36
COC(=O)Cc1nnc2n(c1=O)CCN2c1ccc(C)cc1 [Compound 41],analgesic activity,[6],analgesic
same,"log kw, IAM",[4]; ref [23],1.33
COC(=O)Cc1nnc2n(c1=O)CCN2c1ccc(OC)cc1 [Compound 42],analgesic activity,[6],analgesic
same,"log kw, IAM",[4]; ref [23],0.81
CCOC(=O)Cc1nnc2n(c1=O)CCN2c1ccccc1 [Compound 45],mechanism of antiproliferative action: promoting apoptosis,human cancer cells [1],apoptosis
same,mechanism of antiproliferative action: promoting necrosis,human cancer cells [1],necrosis
same,"log kw, IAM",[4]; ref [23],1.21
CCOC(=O)Cc1nnc2n(c1=O)CCN2c1cccc(Cl)c1 [Compound 48],mechanism of antiproliferative action: promoting apoptosis,human cancer cells [1],apoptosis
same,mechanism of antiproliferative action: promoting necrosis,human cancer cells [1],necrosis
same,"log kw, IAM",[4]; ref [23],2.05
CCOC(=O)Cc1nnc2n(c1=O)CCN2c1ccc(Cl)c(Cl)c1 [Compound 50],mechanism of antiproliferative action: promoting apoptosis,human cancer cells [1],apoptosis
same,mechanism of antiproliferative action: promoting necrosis,human cancer cells [1],necrosis
same,"log kw, IAM",[4]; ref [23],2.42
NNC(=O)c1nnc2n(c1=O)CCN2c1ccccc1 [Compound 51],analgesic activity,[6],analgesic
same,"log kw, IAM",[4]; ref [21],−0.14
NNC(=O)c1nnc2n(c1=O)CCN2c1cccc(Cl)c1 [Compound 54],antitumor activity,human cancer cells [5],antitumor
same,mechanism of antiproliferative action: inducing DNA damage,human cancer cells [1],DNA damage
same,mechanism of antiproliferative action: promoting apoptosis,human cancer cells [1],apoptosis
same,"log kw, IAM",[4]; ref [21],0.41
NNC(=O)c1nnc2n(c1=O)CCN2c1ccc(Cl)c(Cl)c1 [Compound 55],antiradical activity,[7],antiradical
same,"log kw, IAM",[4]; ref [21],0.69
COc1ccc(N2CCn3c2nnc(CC(=O)NN)c3=O)cc1 [Compound 58],"log kw, IAM",[2],−0.27
same,antiradical activity,[7],antiradical
O=c1c(-c2cccs2)nnc2n1CCN2c1cccc(Cl)c1 [Compound 78],"log kw, IAM",[2],2.26
O=c1c(-c2cccs2)nnc2n1CCN2c1ccc(Cl)cc1 [Compound 79],"log kw, IAM",[2],1.53
O=c1c(-c2cccs2)nnc2n1CCN2c1ccc(Cl)c(Cl)c1 [Compound 80],mechanism of antiproliferative action: promoting apoptosis,human cancer cells [1],apoptosis
same,mechanism of antiproliferative action: promoting necrosis,human cancer cells [1],necrosis
same,"log kw, IAM",[2],2.68
Cc1cccc(N2CCn3c2nnc(-c2ccccc2)c3=O)c1 [Compound 83],analgesic activity,[6],analgesic
same,antimetastatic activity,[8],antimetastatic
same,antihemolytic activity,[9],antihemolytic
same,"log kw, IAM",[4]; ref [23],2.26
same,analgesic activity,[10],analgesic activity
same,toxicity,[10],low toxicity
COc1ccc(N2CCn3c2nnc(-c2ccccc2)c3=O)cc1 [Compound 86],antitumor activity,human cancer cells [5],antitumor
same,antimetastatic activity,[8],antimetastatic
same,"log kw, IAM",[4]; ref [23],1.71
O=c1c(-c2ccccc2)nnc2n1CCN2c1ccccc1Cl [Compound 89],analgesic activity,[6],analgesic
same,antihemolytic activity,[9],antihemolytic
same,"log kw, IAM",[4]; ref [23],1.73
same,analgesic activity,[10],analgesic activity
same,toxicity,[10],low toxicity
O=c1c(-c2ccccc2)nnc2n1CCN2c1ccc(Cl)cc1 [Compound 91],analgesic activity,[6],analgesic
same,"log kw, IAM",[4]; ref [23],2.57
O=c1c(-c2ccccc2)nnc2n1CCN2c1ccc(Cl)c(Cl)c1 [Compound 92],analgesic activity,[6],analgesic
same,antihemolytic activity,[9],antihemolytic
same,"log kw, IAM",[4]; ref [23],3.26
O=c1c(-c2ccc([N+](=O)[O-])cc2)nnc2n1CCN2c1ccccc1 [Compound 93],"log kw, IAM",[2],1.92
Cc1ccccc1N1CCn2c1nnc(-c1ccc([N+](=O)[O-])cc1)c2=O [Compound 94],"log kw, IAM",[2],2.52
Cc1ccc(N2CCn3c2nnc(-c2ccc([N+](=O)[O-])cc2)c3=O)cc1 [Compound 95],"log kw, IAM",[2],1.83
COc1ccccc1N1CCn2c1nnc(-c1ccc([N+](=O)[O-])cc1)c2=O [Compound 96],"log kw, IAM",[2],1.78
Cc1cccc(N2CCn3c2nnc(-c2ccc([N+](=O)[O-])cc2)c3=O)c1C [Compound 97],"log kw, IAM",[2],1.78
O=c1c(-c2ccc([N+](=O)[O-])cc2)nnc2n1CCN2c1ccccc1Cl [Compound 98],"log kw, IAM",[2],2.16
O=c1c(-c2ccc([N+](=O)[O-])cc2)nnc2n1CCN2c1cccc(Cl)c1 [Compound 99],"log kw, IAM",[2],2.02
O=c1c(-c2ccc([N+](=O)[O-])cc2)nnc2n1CCN2c1ccc(Cl)cc1 [Compound 100],"log kw, IAM",[2],2.52
O=c1c(-c2ccc([N+](=O)[O-])cc2)nnc2n1CCN2c1ccc(Cl)c(Cl)c1 [Compound 101],"log kw, IAM",[2],3.22
O=c1c(Cc2ccccc2Cl)nnc2n1CCN2c1ccccc1 [Compound 103],analgesic activity,[6],analgesic
same,"log kw, IAM",[4]; ref [23],2.34
same,analgesic activity,[10],analgesic activity
same,toxicity,[10],low toxicity
Cc1ccc(N2CCn3c2nnc(Cc2ccccc2Cl)c3=O)cc1 [Compound 109],antitumor activity,human cancer cells [5],antitumor
same,analgesic activity,[6],analgesic
same,"log kw, IAM",[4]; ref [23],2.65
same,analgesic activity,[10],analgesic activity
same,toxicity,[10],low toxicity
CCOc1ccc(N2CCn3c2nnc(Cc2ccccc2)c3=O)cc1 [Compound 112],analgesic activity,[6],analgesic
same,"log kw, IAM",[4]; ref [23],2.11
CCOc1ccc(N2CCn3c2nnc(Cc2ccccc2Cl)c3=O)cc1 [Compound 114],antitumor activity,human cancer cells [5],antitumor
same,analgesic activity,[6],analgesic
same,"log kw, IAM",[4]; ref [23],2.51
same,analgesic activity,[10],analgesic activity
same,toxicity,[10],low toxicity
CCOc1ccc(N2CCn3c2nnc(Cc2ccc(Cl)cc2)c3=O)cc1 [Compound 116],antitumor activity,human cancer cells [5],antitumor
same,"log kw, IAM",[4]; ref [23],2.72
same,analgesic activity,[10],analgesic activity
same,toxicity,[10],low toxicity
